Source: patent US6676932B2, “Ultraviolet absorbent, photostabilizer, ultraviolet ray-absorbing composition, photostabilized composition and external preparation for skin” (Shiseido Co., Ltd., priority 2001, dated 2004)

Columns and labels:
Type in all cases: physicochemical
[1] = Stabilization effect on perfume under daylight exposure (Test Examples 92 to 181); design: key: ◯: no change; Δ: almost no change; x: change; settings: daylight exposure (80 MJ)
Description: Each test sample was prepared for observation of the change of the odor of the test sample (determined by perfume coordinator) before and after daylight exposure (80 MJ).

[2] = Dye stabilization effect under daylight exposure (Test Examples 6-91); design: key to Δ E: color difference ΔE in Lab vs. color before daylight exposure; key to Appearance (visual determination): ◯: no change; Δ: almost no change; x: change; settings: photostabilizer 0.05 wt %, daylight exposure (80 MJ)
In short: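 Test samples exposed to daylight to 80 MJ; appearance judged visually. Colour measured by spectrophotometer in Lab coordinates, with ΔE calculated relative to pre-exposure values (L1, a1, b1).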

[3] = Drug stabilization effect under daylight exposure (Test Examples 182 to 211); design: key to Appearance (visual determination): ◯: no change; Δ: almost no change; x: change; settings: drug dibutylhydroxytoluene 0.01 wt %, photostabilizer 0.05 wt %, daylight exposure (80 MJ)
Description: (§1) For observation of the change of the appearance of each test sample (determination based on visual observation) and the measurement of the remaining ratio by liquid chromatography before and after daylight exposure (80 MJ), the test sample was prepared.

[4] = Drug stabilization effect blended with sequestering agent (Test Examples 372 to 391); design: key to Appearance (visual determination): ◯: no change; Δ: almost no change; x: change; settings: drug L-ascorbic acid 2-glucoside 2.0, photostabilizer blend amount 0.03, daylight exposure (80 MJ)
Description: Then, the photostabilization effect of the pyridazine derivative in combination with sequestering agents on each drug and the change of the appearance of each composition were examined, by using the following formulation for assessment.
as §1

[5] = Dye stabilization effect in blend with sequestering agents (Test Examples 212 to 275); settings: daylight exposure (80 MJ)
In short: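 Colour difference (ΔE) measured by spectrophotometer in Lab coordinates before and after daylight exposure (80 MJ), relative to pre-exposure values (L1, a1, b1); appearance change also assessed visually.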

[6] = dye Blue 1 (Brilliant Blue FCF) 0.0001 wt %
[7] = dye Green 3 (Fast Green FCF) 0.001 wt %
[8] = dye Red 227 (Acid Fuchsine D) 0.0001 wt %
[9] = dye Yellow 5 (Sunset Yellow FCF) 0.001 wt %
[10] = dyes Red 401 (Violanin R) 0.0001 + Blue 1 (Brilliant Blue FCF) 0.00001 wt %
[11] = dyes Yellow 203 (Quinoline Yellow WS) 0.0001 + Yellow 5 (Sunset Yellow FCF) 0.0001 wt %

## Oc1ccc(N2CCOCC2)nn1 [3-Hydroxy-6-morpholinopyridazine, 6-Morpholino-3-hydroxypyridazine]
[1]; natural perfume Nelori oil, photostabilizer 0.1 wt %
  odor determination: ◯
[1]; natural perfume Ylang ylang oil, photostabilizer 0.2 wt %
  odor determination: ◯
[1]; synthetic perfume Limonene oil, photostabilizer 0.05 wt %
  odor determination: ◯
[1]; synthetic perfume Linalool, photostabilizer 0.05 wt %
  odor determination: ◯
[2]; [6]
  Appearance (visual determination): ◯
  Δ E: 1.32
[2]; [7]
  Appearance (visual determination): ◯
  Δ E: 0.43
[2]; [8]
  Appearance (visual determination): ◯
  Δ E: 0.54
[2]; [9]
  Appearance (visual determination): ◯
  Δ E: 0.53
[2]; [10]
  Appearance (visual determination): ◯
  Δ E: 0.52
[2]; [11]
  Appearance (visual determination): ◯
  Δ E: 0.44
[3]
  Appearance (visual determination): ◯
[3]; liquid chromatography
  Remaining ratio (%): 98.0%
[4]; no sequestering agent
  Appearance (visual determination): ◯
[4]; with sodium metaphosphate 0.03
  Appearance (visual determination): ◯
[5]; dye Green 3 (Fast Green FCF) 0.001, photostabilizer 0.02, no sequestering agent
  Δ E: 0.75
[5]; dye Green 3 (Fast Green FCF) 0.001, photostabilizer 0.02, with ethylenediaminetetraacetate trisodium 0.1
  Δ E: 0.32
[5]; dye Green 3 (Fast Green FCF) 0.001, photostabilizer 0.02, with sodium metaphosphate 0.1
  Δ E: 0.36
[5]; dye Green 3 (Fast Green FCF) 0.001, photostabilizer 0.02, with sodium polyphosphate 0.1
  Δ E: 0.52
[5]; dyes Red 106 (Acid Red) 0.00001 + Yellow 5 (Sunset Yellow FCF) 0.0001, no sequestering agent, photostabilizer blend amount 0.01
  Δ E: 1.38
[5]; dyes Red 106 (Acid Red) 0.00001 + Yellow 5 (Sunset Yellow FCF) 0.0001, with ethylenediaminetetraacetate trisodium 0.02, photostabilizer blend amount 0.01
  Δ E: 0.92
